For eight molecules, GI50 and TGI results are on record in PubChem BioAssay (NCI).

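Method: 48-hour compound exposure of cells in 96-well plates, five concentrations, linear interpolation of endpoints. GI50 = concentration required for 50% inhibition of growth. Definition used: TGI = concentration required for complete inhibition of growth.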 Where only a bound is given, the exact number is not on record here.

Assay in all cases: growth of human tumour cells (NCI), 48 h
For test [1], the system named is SK-OV-3 ovarian.
Test [2] deals with NCI-H460 lung.
Test [3] has as its system MDA-MB-231 breast.
Test [4] has as its system A498 renal.
In test [5] the test system is DU-145 prostate.
For test [6], the system named is HCC-2998 colon.
The subject of test [7] is 786-0 renal.
Test [8] concerns SN12C renal.
Test [9] concerns KM12 colon.
For test [10], the system named is NCI-H522 lung.

Take `COc1ccc(/C=C2\CN(Cc3cn(CCCNc4ccnc5cc(Cl)ccc45)nn3)C/C(=C\c3ccc(OC)cc3)C2=O)cc1`: the GI50 is 14.1 µM in [1]; 1.86 µM in test [2]; 5.39 µM in test [3]; 2.2 µM in test [4]; 1.81 µM in [5]; 13.8 µM in test [6]. Further, the GI50 in test [7] is 14.3 µM; in [8] it was 13.1 µM; in test [9] it was 1.66 µM; in test [10] it was 10.3 µM. Moreover, the TGI in [1] came out at 30.6 µM; in [2], 3.79 µM; in test [3], 28.4 µM; in test [4] it was 32.8 µM; in [5], 3.3 µM; in test [6], 27.9 µM. The TGI in test [7] came to 30.3 µM; in [8], 33.8 µM; in [9], 3.39 µM; in [10], 21.9 µM.
On to `COc1ccc(N2CCN(CC(=O)N3CCN(c4nnc(-c5ccc(Cl)cc5)c(-c5ccc(Cl)cc5)n4)CC3)CC2)cc1`, for which the GI50 in test [1] was > 100 µM; in test [2], 7 µM; in test [3] it was 35.4 µM; in test [4], 13.4 µM; in test [5], 75 µM; in test [6] it was 9.94 µM. For the same molecule, the GI50 is 10 µM in test [7], 24.8 µM in test [8], 4.86 µM in test [9] and 9.2 µM in test [10]. Further, the TGI in test [1], in [2], in [3], in test [4], in test [5] and in test [6] was > 100 µM each time. The TGI in test [7], in test [8], in test [9] and in test [10] was > 100 µM each time.
As for `O=C(NC(c1ccccc1)C(O)C(=O)OCc1ccc2c(c1)C(=O)c1ccccc1C2=O)c1ccccc1` (centres undefined), the TGI in test [1] was 15.3 µM; in test [2], 42.8 µM; in test [3], 30.6 µM; in [4] it was 15.7 µM; in test [5], > 100 µM; in [6], > 100 µM. In addition, the TGI in [7] was 6.4 µM; in test [8], 47.9 µM; in test [9] it was > 97.4 µM; in [10], 63.6 µM.
For the molecule `CC(C)(O)C1CC(=O)C(C)(C2C(O)CC3(C)C4CC=C5C(CCC(O)C5(C)C)C4(C)C(=O)CC23C)O1` (centres undefined), the TGI in test [1], in test [2], in test [3], in test [4], in test [5] and in test [6] was > 100 µM throughout. In addition, the TGI in test [7], in test [8], in [9] and in test [10] was > 100 µM each time.
As for `N#CC1=C(N)Oc2c(ccc3ccccc23)C1c1ccccc1Cl` (centres undefined), the GI50 in [1] was 0.628 µM; in test [2], 0.335 µM; in test [3], 0.571 µM; in [4], 0.0845 µM; in test [5], 0.432 µM; in test [6] it was 0.429 µM. Besides, the GI50 in [7] is 0.754 µM; in [8], 0.722 µM; in test [9] it was 0.227 µM; in test [10], 0.0848 µM. In addition, the TGI stood at 43.3 µM in test [1]; 1.34 µM in [2]; 14.6 µM in test [3]; 0.496 µM in test [4]; 12.3 µM in [5]; 11.6 µM in test [6]. Besides, the TGI in test [7] stood at 16.4 µM; in test [8] it was 13.9 µM; in [9], 7.9 µM; in test [10], 3.22 µM.
Turning to `Cc1cccc(NC(=O)c2sc3nc4c(cc3c2N)CCC4)c1C`, the GI50 is 0.379 µM in [1]; 0.382 µM in [2]; 0.594 µM in [3]; 0.262 µM in test [4]; 0.407 µM in test [5]; 0.687 µM in test [6]. Moreover, the GI50 in [7] was 0.367 µM; in [8], 0.888 µM; in test [9], 0.407 µM; in test [10], 0.325 µM. For the same molecule, the TGI turned out to be 18.4 µM in test [1]; 13.1 µM in test [2]; 29.3 µM in [3]; 0.938 µM in test [4]; 13.9 µM in test [5]; 22.5 µM in [6]. The TGI in [7] is 14.3 µM; in [8] it was > 100 µM; in test [9], 41 µM; in test [10], 16.5 µM.
Regarding `COc1c(C)cnc(Cn2cnc3c(Cl)nc(N)nc32)c1C`, the GI50 in test [1] was 0.23 µM; in test [2] it was 0.0974 µM; in test [3], 0.559 µM; in test [4], 0.679 µM; in test [5], 0.0701 µM; in test [6], 0.457 µM. In addition, the GI50 in test [7] is 0.937 µM; in [8] it was 0.336 µM; in test [9] it was 0.0854 µM; in [10], 0.261 µM. Moreover, the TGI in test [1] is > 70.6 µM; in test [2] it was > 100 µM; in test [3] it was > 72.9 µM; in test [4], 23.4 µM; in [5] it was > 100 µM; in test [6], 10.7 µM. The TGI was > 100 µM in test [7], > 100 µM in test [8] and 12.9 µM in test [10].
Take `O=C1c2cccc3cc4ccccc4c(c23)C(=O)N1CCCNCCNCCCN1C(=O)c2cccc3cc4ccccc4c(c23)C1=O`: the TGI in test [1] was 1.65 µM; in [2], 0.161 µM; in [3] it was 1.66 µM; in test [4], 1.91 µM; in test [5] it was 2.04 µM; in [6], 1.71 µM. For the same molecule, the TGI in [7] stood at 1.69 µM; in test [8] it was 1.86 µM; in [9], 1.29 µM; in [10] it was 1.46 µM.
